Laboratory results as given in PubChem BioAssay (NCI).
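Assay format: 96-well plates, 48-hour exposure. Abbreviation: GI50, concentration required for 50% inhibition of growth. Definition used: TGI = concentration required for complete inhibition of growth.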

Key:
Experiment in all cases: DTP human tumour cell line panel, 48 h
SF-268 CNS = test system: SF-268 CNS
MDA-MB-231 breast = test system: MDA-MB-231 breast
LOX IMVI melanoma = test system: LOX IMVI melanoma
NCI/ADR-RES ovarian = test system: NCI/ADR-RES ovarian
NCI-H522 lung = test system: NCI-H522 lung
ACHN renal = test system: ACHN renal
SK-MEL-28 melanoma = test system: SK-MEL-28 melanoma
OVCAR-5 ovarian = test system: OVCAR-5 ovarian
HCT-116 colon = test system: HCT-116 colon
SN12C renal = test system: SN12C renal
NCI-H226 lung = test system: NCI-H226 lung
MOLT-4 leukemia = test system: MOLT-4 leukemia
UO-31 renal = test system: UO-31 renal
TK-10 renal = test system: TK-10 renal
MDA-MB-435 = test system: MDA-MB-435
SK-MEL-5 melanoma = test system: SK-MEL-5 melanoma
T-47D breast = test system: T-47D breast
SR leukemia = test system: SR leukemia
BT-549 breast = test system: BT-549 breast
OVCAR-3 ovarian = test system: OVCAR-3 ovarian
OVCAR-8 ovarian = test system: OVCAR-8 ovarian
SK-MEL-2 melanoma = test system: SK-MEL-2 melanoma
COLO 205 colon = test system: COLO 205 colon
M14 melanoma = test system: M14 melanoma
A549 NSCLC = test system: A549 NSCLC
MALME-3M melanoma = test system: MALME-3M melanoma
CCRF-CEM leukemia = test system: CCRF-CEM leukemia
DU-145 prostate = test system: DU-145 prostate
HS 578T breast = test system: HS 578T breast
HL-60(TB) leukemia = test system: HL-60(TB) leukemia
K-562 leukemia = test system: K-562 leukemia
SF-539 CNS = test system: SF-539 CNS
UACC-257 melanoma = test system: UACC-257 melanoma
IGROV1 ovarian = test system: IGROV1 ovarian
RPMI-8226 leukemia = test system: RPMI-8226 leukemia
HOP-92 NSCLC = test system: HOP-92 NSCLC
HT29 colon = test system: HT29 colon
SW-620 colon = test system: SW-620 colon
HCC-2998 colon = test system: HCC-2998 colon
SNB-19 CNS = test system: SNB-19 CNS
EKVX NSCLC = test system: EKVX NSCLC
MCF7 breast = test system: MCF7 breast
RXF 393 renal = test system: RXF 393 renal
A498 renal = test system: A498 renal
U251 CNS = test system: U251 CNS
HOP-62 NSCLC = test system: HOP-62 NSCLC
HCT-15 colon = test system: HCT-15 colon
OVCAR-4 ovarian = test system: OVCAR-4 ovarian
KM12 colon = test system: KM12 colon
NCI-H23 lung = test system: NCI-H23 lung
SNB-75 CNS = test system: SNB-75 CNS
NCI-H460 lung = test system: NCI-H460 lung
SF-295 CNS = test system: SF-295 CNS
SK-OV-3 ovarian = test system: SK-OV-3 ovarian

Question: `CS(=O)(=O)OCCn1c2c(c3c(O)cccc31)C(=O)c1ccccc1-2` was tested. Which GI50 (SF-268 CNS) did it give?
Answer: 78.5 µM

Question: What about the TGI (SF-268 CNS) of the same compound?
Answer: > 100 µM

Question: And the GI50 (MDA-MB-231 breast)?
Answer: 20.4 µM

Question: And the TGI (MDA-MB-231 breast)?
Answer: > 100 µM

Question: And the GI50 (LOX IMVI melanoma)?
Answer: 54.1 µM

Question: What about the TGI (LOX IMVI melanoma) of the same compound?
Answer: > 100 µM

Question: What about the GI50 (NCI/ADR-RES ovarian) of the same compound?
Answer: > 100 µM

Question: And the TGI (NCI/ADR-RES ovarian)?
Answer: > 100 µM

Question: What about the GI50 (NCI-H522 lung) of the same compound?
Answer: 95.1 µM

Question: And the TGI (NCI-H522 lung)?
Answer: > 100 µM

Question: And the GI50 (ACHN renal)?
Answer: 60.3 µM

Question: What about the TGI (ACHN renal) of the same compound?
Answer: > 100 µM

Question: What about the GI50 (SK-MEL-28 melanoma) of the same compound?
Answer: > 100 µM

Question: And the TGI (SK-MEL-28 melanoma)?
Answer: > 100 µM

Question: What about the GI50 (OVCAR-5 ovarian) of the same compound?
Answer: > 100 µM

Question: What about the TGI (OVCAR-5 ovarian) of the same compound?
Answer: > 100 µM

Question: And the GI50 (HCT-116 colon)?
Answer: 44.7 µM

Question: And the TGI (HCT-116 colon)?
Answer: > 100 µM

Question: What about the GI50 (SN12C renal) of the same compound?
Answer: 33.7 µM

Question: What about the TGI (SN12C renal) of the same compound?
Answer: > 100 µM

Question: And the GI50 (NCI-H226 lung)?
Answer: 39.7 µM

Question: And the TGI (NCI-H226 lung)?
Answer: > 100 µM

Question: And the GI50 (MOLT-4 leukemia)?
Answer: 36.5 µM

Question: What about the TGI (MOLT-4 leukemia) of the same compound?
Answer: > 100 µM

Question: What about the GI50 (UO-31 renal) of the same compound?
Answer: > 100 µM

Question: What about the TGI (UO-31 renal) of the same compound?
Answer: > 100 µM

Question: And the GI50 (TK-10 renal)?
Answer: > 100 µM

Question: And the TGI (TK-10 renal)?
Answer: > 100 µM

Question: What about the GI50 (MDA-MB-435) of the same compound?
Answer: 46 µM

Question: What about the TGI (MDA-MB-435) of the same compound?
Answer: > 100 µM

Question: And the GI50 (SK-MEL-5 melanoma)?
Answer: > 100 µM

Question: What about the TGI (SK-MEL-5 melanoma) of the same compound?
Answer: > 100 µM

Question: What about the GI50 (T-47D breast) of the same compound?
Answer: 64.7 µM

Question: And the TGI (T-47D breast)?
Answer: > 100 µM

Question: And the GI50 (SR leukemia)?
Answer: 10.3 µM

Question: And the TGI (SR leukemia)?
Answer: > 100 µM

Question: What about the GI50 (BT-549 breast) of the same compound?
Answer: > 100 µM

Question: What about the TGI (BT-549 breast) of the same compound?
Answer: > 100 µM

Question: And the GI50 (OVCAR-3 ovarian)?
Answer: 66.6 µM

Question: And the TGI (OVCAR-3 ovarian)?
Answer: > 100 µM

Question: What about the GI50 (OVCAR-8 ovarian) of the same compound?
Answer: > 100 µM

Question: What about the TGI (OVCAR-8 ovarian) of the same compound?
Answer: > 100 µM

Question: And the GI50 (SK-MEL-2 melanoma)?
Answer: > 100 µM

Question: What about the TGI (SK-MEL-2 melanoma) of the same compound?
Answer: > 100 µM

Question: What about the GI50 (COLO 205 colon) of the same compound?
Answer: > 100 µM

Question: What about the TGI (COLO 205 colon) of the same compound?
Answer: > 100 µM

Question: And the GI50 (M14 melanoma)?
Answer: > 100 µM

Question: And the TGI (M14 melanoma)?
Answer: > 100 µM

Question: And the GI50 (A549 NSCLC)?
Answer: > 100 µM

Question: What about the TGI (A549 NSCLC) of the same compound?
Answer: > 100 µM

Question: What about the GI50 (MALME-3M melanoma) of the same compound?
Answer: > 100 µM

Question: And the TGI (MALME-3M melanoma)?
Answer: > 100 µM

Question: What about the GI50 (CCRF-CEM leukemia) of the same compound?
Answer: 37.1 µM

Question: What about the TGI (CCRF-CEM leukemia) of the same compound?
Answer: > 100 µM

Question: And the GI50 (DU-145 prostate)?
Answer: > 100 µM

Question: And the TGI (DU-145 prostate)?
Answer: > 100 µM

Question: And the GI50 (HS 578T breast)?
Answer: > 100 µM

Question: What about the TGI (HS 578T breast) of the same compound?
Answer: > 100 µM

Question: What about the GI50 (HL-60(TB) leukemia) of the same compound?
Answer: 30.9 µM

Question: What about the TGI (HL-60(TB) leukemia) of the same compound?
Answer: > 100 µM

Question: And the GI50 (K-562 leukemia)?
Answer: > 100 µM

Question: And the TGI (K-562 leukemia)?
Answer: > 100 µM

Question: What about the GI50 (SF-539 CNS) of the same compound?
Answer: > 100 µM

Question: And the TGI (SF-539 CNS)?
Answer: > 100 µM

Question: And the GI50 (UACC-257 melanoma)?
Answer: > 100 µM

Question: And the TGI (UACC-257 melanoma)?
Answer: > 100 µM

Question: And the GI50 (IGROV1 ovarian)?
Answer: > 100 µM

Question: What about the TGI (IGROV1 ovarian) of the same compound?
Answer: > 100 µM

Question: And the GI50 (RPMI-8226 leukemia)?
Answer: 19.7 µM

Question: And the TGI (RPMI-8226 leukemia)?
Answer: > 100 µM

Question: And the GI50 (HOP-92 NSCLC)?
Answer: 24.7 µM

Question: What about the TGI (HOP-92 NSCLC) of the same compound?
Answer: > 100 µM

Question: What about the GI50 (HT29 colon) of the same compound?
Answer: 99.8 µM

Question: What about the TGI (HT29 colon) of the same compound?
Answer: > 100 µM

Question: And the GI50 (SW-620 colon)?
Answer: > 100 µM

Question: And the TGI (SW-620 colon)?
Answer: > 100 µM

Question: And the GI50 (HCC-2998 colon)?
Answer: 36 µM

Question: What about the TGI (HCC-2998 colon) of the same compound?
Answer: > 100 µM

Question: What about the GI50 (SNB-19 CNS) of the same compound?
Answer: 40.7 µM

Question: And the TGI (SNB-19 CNS)?
Answer: > 100 µM

Question: What about the GI50 (EKVX NSCLC) of the same compound?
Answer: > 100 µM

Question: What about the TGI (EKVX NSCLC) of the same compound?
Answer: > 100 µM

Question: And the GI50 (MCF7 breast)?
Answer: > 100 µM

Question: What about the TGI (MCF7 breast) of the same compound?
Answer: > 100 µM

Question: And the GI50 (RXF 393 renal)?
Answer: > 100 µM

Question: What about the TGI (RXF 393 renal) of the same compound?
Answer: > 100 µM

Question: What about the GI50 (A498 renal) of the same compound?
Answer: > 100 µM

Question: And the TGI (A498 renal)?
Answer: > 100 µM

Question: What about the GI50 (U251 CNS) of the same compound?
Answer: 77.3 µM

Question: And the TGI (U251 CNS)?
Answer: > 100 µM

Question: What about the GI50 (HOP-62 NSCLC) of the same compound?
Answer: 87.1 µM

Question: What about the TGI (HOP-62 NSCLC) of the same compound?
Answer: > 100 µM

Question: And the GI50 (HCT-15 colon)?
Answer: > 100 µM

Question: What about the TGI (HCT-15 colon) of the same compound?
Answer: > 100 µM

Question: What about the GI50 (OVCAR-4 ovarian) of the same compound?
Answer: > 100 µM

Question: What about the TGI (OVCAR-4 ovarian) of the same compound?
Answer: > 100 µM

Question: And the GI50 (KM12 colon)?
Answer: 80.2 µM

Question: And the TGI (KM12 colon)?
Answer: > 100 µM

Question: What about the GI50 (NCI-H23 lung) of the same compound?
Answer: > 100 µM

Question: And the TGI (NCI-H23 lung)?
Answer: > 100 µM

Question: And the GI50 (SNB-75 CNS)?
Answer: > 100 µM

Question: What about the TGI (SNB-75 CNS) of the same compound?
Answer: > 100 µM

Question: What about the GI50 (NCI-H460 lung) of the same compound?
Answer: > 100 µM

Question: And the TGI (NCI-H460 lung)?
Answer: > 100 µM

Question: And the GI50 (SF-295 CNS)?
Answer: 84.3 µM

Question: And the TGI (SF-295 CNS)?
Answer: > 100 µM

Question: What about the GI50 (SK-OV-3 ovarian) of the same compound?
Answer: 29 µM

Question: What about the TGI (SK-OV-3 ovarian) of the same compound?
Answer: > 100 µM
